Source: patent EP1599478B1, “DIHYDROPTERIDINONES, METHOD FOR THE PRODUCTION AND USE THEREOF IN THE FORM OF DRUGS” (Boehringer Ingelheim Pharma GmbH & Co.KG, priority 2003, dated 2004)

System: HeLaS3 Zellen
Experiment: Cytotoxicity test on cultured human tumour cells (AlamarBlue)
Format: cell-based
Settings: HeLa S3, 72 h, read-out: HELA
Text: Die Wirkung der erfindungsgemäBen Verbindungen wurde im Cytotoxizitätstest an kultivierten humanen Tumorzellen und/oder in einer FACS-Analyse, beispielsweise an HeLaS3-Zellen, bestimmt.
Messung der Cytotoxizität an kultivierten humanen Tumorzellen
Zur Messung der Cytotoxizität an kultivierten humanen Tumorzellen wurden Zellen der zervikalen Carcinoma Tumorzell-Linie HeLaS3 (erhalten von American Type Culture Collection (ATCC)) in Ham's F12 Medium (Life Technologies) und 10% fötalem Rinderserum (Life Technologies) kultiviert und in der log-Wachstumsphase geerntet. Anschließend wurden die HeLaS3 Zellen in 96-well Platten (Costar) mit einer Dichte von 1000 Zellen pro well eingebracht und über Nacht in einem Inkubator (bei 37°C und 5 % CO2) inkubiert, wobei auf jeder Platte 6 wells nur mit Medium gefüllt wurden (3 wells zur Mediumkontrolle, 3 wells zur Inkubation mit reduzierten AlamarBlue). Die Wirksubstanzen wurden in verschiedenen Konzentrationen (gelöst in DMSO; Endkonzentration: 1%) zu den Zellen zugegeben (jeweils als Dreifachbestimmung) Nach 72 Stunden Inkubation wurden zu jeden well 20 µl AlamarBlue (AccuMed International) zugesetzt, und die Zellen für weitere 7 Stunden inkubiert. Zur Kontrolle wurde zu 3 wells je 20 µl reduziertes Alamar Blue gegeben (AlamarBlue Reagenz, das für 30 min autoklaviert wurde). Nach 7 h Inkubation wurde der Farbumsatz des AlamarBlue Reagenz in den einzelnen wells in einem Perkin Elmer Fluoreszenspektrophotometer bestimmt (Exitation 530 nm, Emission 590 nm, Slits 15, Integrate time 0.1). Die Menge an umgesetzten AlamarBlue Reagenz repräsentiert die metabolische Aktivität der Zellen. Die relative Zellaktivität wurde in Prozent der Kontrolle (HeLa S3 Zellen ohne Inhibitor) berechnet und die Wirkstoffkonzentration, die die Zellaktivität zu 50% hemmt (IC^50) abgeleitet. Die Werte wurden hierbei aus dem Mittelwert von drei Einzelbestimmungen - unter Korrektur des Leerwertes (Mediumkantrolle)- berechnet.

Row | Structure (SMILES) | IC50
1 | CC[C@@H]1C(=O)N(C)c2cnc(Nc3ccc(C(=O)NC4CCN(C)CC4)cc3OC)nc2N1C1CCCC1 [compound 46] | 12 nM

Same assay, conditions: HeLa S3, HeLa cells, unit inferred, read-out: HELA

Row | Structure (SMILES) | IC50
2 | COc1cc(C(=O)NC(C)(C)CN2CCCC2)ccc1Nc1ncc2c(n1)N(c1ccccc1OC)[C@H](C)C(=O)N2C [compound 227] | 853 nM
3 | COc1cccc(N2c3nc(Nc4ccc(C(=O)NC5CCN(C)CC5)cc4)ncc3N(C)C(=O)[C@H]2C)c1 [compound 225] | 1180 nM
4 | COc1cc(C(=O)NC(C)(C)CN(C)C)ccc1Nc1ncc2c(n1)N(C1CCCCC1)[C@H](C)C(=O)N2C [compound 240] | 17 nM
5 | COc1cccc(N2c3nc(Nc4ccc(C(=O)NC5CCN(C)CC5)cc4OC)ncc3N(C)C(=O)[C@H]2C)c1 [compound 224] | 1060 nM
6 | CC[C@@H]1C(=O)N(C)c2cnc(Nc3ccc(C(=O)NC(C)(C)CN4CCN(C)CC4)cc3OC)nc2N1CCC(C)C [compound 241] | 44 nM
7 | CC[C@@H]1C(=O)N(C)c2cnc(Nc3ccc(C(=O)NC(C)(C)CN4CCOCC4)cc3OC)nc2N1C1CCCC1 [compound 239] | 51 nM
8 | COc1cc(C(=O)NC2CCNCC2)ccc1Nc1ncc2c(n1)N(C1CCCC1)[C@H](C)C(=O)N2C [compound 238] | 15 nM
9 | COc1cc(C(=O)NC2CCN(C)CC2)ccc1Nc1ncc2c(n1)N(c1ccccc1OC)[C@H](C)C(=O)N2C [compound 226] | 295 nM
